# Source: patent US12252490B2, “Inhibiting deubiquitinase USP25 and USP28” (Valo Health, Inc., priority 2018, dated 2025)
# pIC50: −log10 of the molar value.
# Target: T1, USP25 (USP25-His6) (Homo sapiens, UniProt Q9UHP3)
# T1 construct: His6 (C); purchased Boston Biochem E-546
# T1 sequence (Q9UHP3 1-1055): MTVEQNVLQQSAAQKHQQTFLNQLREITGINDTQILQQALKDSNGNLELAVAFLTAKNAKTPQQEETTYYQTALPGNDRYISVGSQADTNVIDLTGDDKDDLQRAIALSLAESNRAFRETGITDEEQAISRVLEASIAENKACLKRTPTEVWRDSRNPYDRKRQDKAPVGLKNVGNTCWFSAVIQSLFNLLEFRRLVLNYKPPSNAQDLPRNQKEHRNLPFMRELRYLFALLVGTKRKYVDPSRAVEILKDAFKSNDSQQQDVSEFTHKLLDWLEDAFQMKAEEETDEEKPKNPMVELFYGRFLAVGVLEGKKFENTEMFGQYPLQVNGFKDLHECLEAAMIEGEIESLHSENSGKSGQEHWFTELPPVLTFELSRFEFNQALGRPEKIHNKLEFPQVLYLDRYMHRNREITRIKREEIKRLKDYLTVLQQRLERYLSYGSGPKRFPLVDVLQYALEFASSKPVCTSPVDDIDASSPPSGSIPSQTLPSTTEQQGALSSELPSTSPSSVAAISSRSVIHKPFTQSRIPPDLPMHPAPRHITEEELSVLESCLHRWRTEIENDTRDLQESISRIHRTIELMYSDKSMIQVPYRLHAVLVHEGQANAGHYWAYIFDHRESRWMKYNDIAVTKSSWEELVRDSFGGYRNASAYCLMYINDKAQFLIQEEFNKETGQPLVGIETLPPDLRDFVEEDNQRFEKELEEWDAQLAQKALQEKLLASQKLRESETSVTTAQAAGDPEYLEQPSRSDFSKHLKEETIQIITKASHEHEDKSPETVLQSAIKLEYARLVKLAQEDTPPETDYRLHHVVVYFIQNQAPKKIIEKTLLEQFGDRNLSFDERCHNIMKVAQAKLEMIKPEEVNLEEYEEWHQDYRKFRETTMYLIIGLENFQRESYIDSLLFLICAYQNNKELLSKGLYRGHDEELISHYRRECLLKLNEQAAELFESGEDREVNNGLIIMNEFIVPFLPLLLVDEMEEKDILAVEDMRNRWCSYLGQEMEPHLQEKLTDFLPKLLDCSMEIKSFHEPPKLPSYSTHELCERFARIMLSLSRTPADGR
# Experiment: Ubiquitin-Rhodamine 110 Assay for USP25 Activity, Example A-2
# Format: biochemical
# Details: USP25, 75 pM enzyme, 25 nM Ub-Rh110, 30 min preincubation; read-out: Assay A-2 (IC50 range)
# Experimental: The assay was performed in a final volume of 9 μL in assay buffer containing 20 mM Tris-HCl (pH 8.0, (1M Tris-HCl, pH 8.0 solution; Corning 46-031-CM)), 3 mM BME (2-Mercaptoethanol; Sigma 63689-25ML-F), 0.03% BGG (0.22 μM filtered, Sigma, G7516-25G), and 0.01% Triton X-100 (Sigma, T9284-10L). Nanoliter quantities of 10-point, 3-fold serial dilution in DMSO was pre-dispensed into 1536 assay plates (Corning, #3724BC) for a final test concentration of 25 μM to 1.3 nM, top to lowest dose, respectively. Enzyme USP25, construct USP25-His6, (Boston Biochem E-546). Concentration and incubation times were optimized for the maximal signal-to-background while maintaining initial velocity conditions at a fixed substrate concentration. The final concentration of the enzyme in the assay was 75 pM. Final substrate (Ub-Rh110; Ubiquitin-Rhodamine 110, R&D Systems #U-555) concentration was 25 nM with [Ub-Rh110]<<Km. 3 μL of 2× enzyme was added to assay plates (pre-stamped with compound) preincubated with […] for 30 minutes and then 3 μL of 2×Ub-Rh110 was added to assay plates. Plates were incubated for 45 minutes at room temperature before addition of 3 μL of stop solution (final concentration of 10 mM citric acid (Sigma, 251275-500G)). Fluorescence was read on the Envision (Excitation at 485 nm and Emission at 535 nm; Perkin Elmer) or on the PheraSTAR (Excitation at 485 nm and Emission at 535 nm; BMG Labtech).
# For assay formats Examples A-1a, A-1b, and A-2, data were reported as percent inhibition compared with control wells based on the following equation: % inh=1−((FLU−AveLow)/(AveHigh−AveLow)) where FLU=measured Fluorescence, AveLow=average Fluorescence of no enzyme control (n=16), and AveHigh=average Fluorescence of DMSO control (n=16). IC50 values were determined by curve fitting of the standard 4 parameter logistic fitting algorithm included in the Activity Base software package: IDBS XE Designer Model205. Data is fitted using the Levenburg Marquardt algorithm.
row,SMILES,pIC50
1,"CCn1ccc2cc(C(=O)NC[C@@H](C)c3cc(F)c(N4CCNCC4)cc3F)cnc21 (single isomer, unassigned) [Example 2-1]",5.70 to 6.70
2,"CCn1ccc2cc(C(=O)NC[C@H](C)c3cc(F)c(N4CCNCC4)cc3F)cnc21 (single isomer, unassigned) [Example 2-2]",5.00 to 5.70
3,"CCn1ccc2cc(C(=O)NC[C@H](C)c3cc(F)c(N4CC5CCC(C4)N5)cc3F)cnc21 (single isomer, unassigned) [Example 2-3]",5.70 to 6.70
4,"CCn1ccc2cc(C(=O)NC[C@@H](C)c3cc(F)c(N4CC5CCC(C4)N5)cc3F)cnc21 (single isomer, unassigned) [Example 2-4]",5.70 to 6.70
5,"CCn1ccc2cc(C(=O)NC[C@H](C)c3cc(F)c(N4CC5CCC(C4)N5)cc3F)nnc21 (single isomer, unassigned) [Example 4-2]",5.70 to 6.70
6,"CCn1ccc2cc(C(=O)NC[C@@H](C)c3cc(F)c(N4CC5CCC(C4)N5)cc3F)nnc21 (single isomer, unassigned) [Example 4-3]",5.70 to 6.70
7,"CCn1ccc2cc(C(=O)NCCc3cc(F)c(N4CC5CCC(C4)N5)cc3F)cnc21 [Example 1-1, N-[2-(4-[3,8-diazabicyclo[3.2.1]octan-3-yl]-2,5-difluorophenyl)ethyl]-1-ethyl-1H-pyrrolo[2,3-b]pyridine-5-carboxamide]",6.70 to 7.30
8,"O=C(NCCc1ccc(N2CCNCC2)cc1)c1cnc2[nH]ccc2c1 [Example 1-2, N-(4-(piperazin-1-yl)phenethyl)-1H-pyrrolo[2,3-b]pyridine-5-carboxamide]",5.70 to 6.70
9,"Cn1ccc2cc(C(=O)NCCc3ccc(N4CCNCC4)cc3)cnc21 [Example 1-3, 1-methyl-N-(4-(piperazin-1-yl)phenethyl)-1H-pyrrolo[2,3-b]pyridine-5-carboxamide]",5.70 to 6.70
10,"CCn1ccc2cc(C(=O)NCCc3ccc(N4CCNCC4)cc3)cnc21 [Example 1-4, 1-ethyl-N-(4-(piperazin-1-yl)phenethyl)-1H-pyrrolo[2,3-b]pyridine-5-carboxamide]",5.70 to 6.70
11,"Nc1c(C(=O)NCCc2ccc(N3CCNCC3)cc2)cnc2[nH]ccc12 [Example 1-5, 4-amino-N-(4-(piperazin-1-yl)phenethyl)-1H-pyrrolo[2,3-b]pyridine-5-carboxamide]",5.00 to 5.70
12,"CCn1ccc2cc(C(=O)NCCc3ccc(N4CC5CCC(C4)N5)cc3)cnc21 [Example 1-6, N-(4-(3,8-diazabicyclo[3.2.1]octan-3-yl)phenethyl)-1-ethyl-1H-pyrrolo[2,3-b]pyridine-5-carboxamide]",6.70 to 7.30
13,"CCn1ccc2cc(C(=O)NCCc3cc(F)c(N4CCNCC4)cc3F)cnc21 [Example 1-7, N-(2,5-difluoro-4-(piperazin-1-yl)phenethyl)-1-ethyl-1H-pyrrolo[2,3-b]pyridine-5-carboxamide]",5.70 to 6.70
14,O=C(NCCc1ccc(N2CCNCC2)cc1)c1cnc2c(ccn2CC(F)(F)F)c1 [Example 1-8],6.70 to 7.30
15,"CC(C)(O)Cn1ccc2cc(C(=O)NCCc3cc(F)c(N4CC5CCC(C4)N5)cc3F)cnc21 [Example 1-9, N-(4-(3,8-diazabicyclo[3.2.1]octan-3-yl)-2,5-difluorophenethyl)-1-(2-hydroxy-2-methylpropyl)-1H-pyrrolo[2,3-b]pyridine-5-carboxamide]",< 5.00
16,"CCn1ccc2cc(C(=O)NCCc3ccc(N4CC5CCC(C4)N5)c(F)c3)cnc21 [Example 1-10, N-(4-(3,8-diazabicyclo[3.2.1]octan-3-yl)-3-fluorophenethyl)-1-ethyl-1H-pyrrolo[2,3-b]pyridine-5-carboxamide]",5.70 to 6.70
17,"CCn1cc(Cl)c2cc(C(=O)NCCc3ccc(N4CCNCC4)cc3)cnc21 [Example 3-1, 3-Chloro-1-ethyl-N-[2-[4-(piperazin-1-yl)phenyl]ethyl]-1H-pyrrolo[2,3-b]pyridine-5-carboxamide]",6.70 to 7.30
18,"O=C(NCCc1ccc(N2CCNCC2)cc1)c1cnc2[nH]cc(Cl)c2c1 [Example 3-2, 3-chloro-N-(4-(piperazin-1-yl)phenethyl)-1H-pyrrolo[2,3-b]pyridine-5-carboxamide]",5.00 to 5.70
19,"CCn1ccc2cc(C(=O)NCCc3cc(F)c(N4CC5CCC(C4)N5)cc3F)nnc21 [Example 4-1, N-[2-(4-[3,8-diazabicyclo[3.2.1]octan-3-yl]-2,5-difluorophenyl)ethyl]-7-ethyl-7H-pyrrolo[2,3-c]pyridazine-3-carboxamide]",5.70 to 6.70
20,"CCn1cc(Cl)c2cc(C(=O)NCCc3cc(F)c(N4CC5CCC(C4)N5)cc3F)nnc21 [Example 4-4, N-(4-(3,8-diazabicyclo[3.2.1]octan-3-yl)-2,5-difluorophenethyl)-5-chloro-7-ethyl-7H-pyrrolo[2,3-c]pyridazine-3-carboxamide]",6.70 to 7.30
